test: Determination of log P values by HPLC (reversed-phase C18); type: physicochemical; settings: HPLC, reversed-phase C18, 55° C.; final compounds table
Description: 1) Description of Method for Determination of the Log P Values ([…]) The log P values given in the table were determined in accordance with EEC Directive 79/831 Annex V.A8 by HPLC (High Performance Liquid Chromatography) using a reversed-phase column (C 18). Temperature: 55° C. […] Gradient: from 10% eluent A/90% eluent B to 95% eluent A/5% eluent B in 4.25 min. Calibration was effected with unbranched alkan-2-ones (having 3 to 16 carbon atoms) with known log P values (log P values determined on the basis of the retention times by linear interpolation between two successive alkanones). The lambda max values were determined in the maxima of the chromatographic signals using the UV spectra from 200 nm to 400 nm.

Row | Compound | log P neutral
1 | O=C(Nc1ncn(-c2ccccc2F)n1)c1ccccc1Cl [Compound I-1-1] | 1.88
2 | O=C(Nc1ncn(-c2ccccc2F)n1)c1ccccc1C(F)(F)F [Compound I-1-2] | 2.06
3 | O=C(Nc1ncn(-c2ccccc2Cl)n1)c1ccccc1C(F)(F)F [Compound I-1-3] | 2.10
4 | O=C(Nc1ncn(-c2ccccc2Cl)n1)c1ccccc1Cl [Compound I-1-5] | 1.91
5 | O=C(Nc1ncn(-c2ccccc2Cl)n1)c1c(F)cccc1F [Compound I-1-6] | 1.90
6 | O=C(Nc1ncn(-c2ccccc2C(F)(F)F)n1)c1ccccc1Cl [Compound I-1-7] | 2.06
7 | O=C(Nc1ncn(-c2ccccc2OC(F)(F)F)n1)c1ccccc1Cl [Compound I-1-9] | 2.32

same assay, conditions: N-[1-aryl-1H-1,2,4-triazol-3-yl]benzamides, formula (1-9)

Row | Compound | logP (neutral)
8 | O=C(Nc1ncn(-c2c(Br)cc(F)cc2Br)n1)c1ccccc1 [1-9 R1=Br R2m=6-Br-4-F] | 2.14
9 | O=C(Nc1ncn(-c2c(Br)cccc2Br)n1)c1ccccc1 [1-9 R1=Br R2m=6-Br] | 2.00
10 | O=C(Nc1ncn(-c2ccccc2Br)n1)c1ccccc1 [1-9 R1=Br R2m=—] | 1.80
11 | O=C(Nc1ncn(-c2ccccc2C(F)(F)F)n1)c1ccccc1 [1-9 R1=CF3 R2m=—] | 1.91
12 | COc1cccc(C)c1-n1cnc(NC(=O)c2ccccc2)n1 [1-9 R1=CH3 R2m=6-OCH3] | 1.76
13 | O=C(Nc1ncn(-c2cccc(Cl)c2Cl)n1)c1ccccc1 [1-9 R1=Cl R2m=3-Cl] | 2.11
14 | O=C(Nc1ncn(-c2ccc(Cl)cc2Cl)n1)c1ccccc1 [1-9 R1=Cl R2m=4-Cl] | 2.18
15 | O=C(Nc1ncn(-c2cc(Cl)ccc2Cl)n1)c1ccccc1 [1-9 R1=Cl R2m=5-Cl] | 2.17
16 | CCc1cccc(Cl)c1-n1cnc(NC(=O)c2ccccc2)n1 [1-9 R1=Cl R2m=6-C2H5] | 2.2
17 | Cc1cccc(Cl)c1-n1cnc(NC(=O)c2ccccc2)n1 [1-9 R1=Cl R2m=6-CH3] | 1.92
18 | O=C(Nc1ncn(-c2c(Cl)cccc2Cl)n1)c1ccccc1 [1-9 R1=Cl R2m=6-Cl] | 1.8
19 | O=C(Nc1ncn(-c2c(F)cccc2Cl)n1)c1ccccc1 [1-9 R1=Cl R2m=6-F] | 1.75
20 | O=C(Nc1ncn(-c2ccccc2Cl)n1)c1ccccc1 [1-9 R1=Cl R2m=—] | 1.75
21 | O=C(Nc1ncn(-c2c(F)c(F)c(F)c(F)c2F)n1)c1ccccc1 [1-9 R1=F R2m=3,4,5,6-F4] | 2.11
22 | O=C(Nc1ncn(-c2c(F)ccc(F)c2F)n1)c1ccccc1 [1-9 R1=F R2m=3,6-F2] | 1.73
23 | O=C(Nc1ncn(-c2c(F)cc(F)cc2F)n1)c1ccccc1 [1-9 R1=F R2m=4,6-F2] | 1.71
24 | Cc1cccc(F)c1-n1cnc(NC(=O)c2ccccc2)n1 [1-9 R1=F R2m=6-CH3] | 1.89
25 | O=C(Nc1ncn(-c2c(F)cccc2I)n1)c1ccccc1 [1-9 R1=F R2m=6-I] | 1.79
26 | O=C(Nc1ncn(-c2ccccc2F)n1)c1ccccc1 [1-9 R1=F R2m=—] | 1.69
27 | O=C(Nc1ncn(-c2ccccc2I)n1)c1ccccc1 [1-9 R1=I R2m=—] | 1.87
28 | O=C(Nc1ncn(-c2ccccc2OC(F)(F)F)n1)c1ccccc1 [1-9 R1=OCF3 R2m=—] | 2.15

same assay, conditions: reversed-phase C18 HPLC column, pH 3.4; HPLC-MS, preparation examples; read-out: log P

Row | Compound | chromatographic logP
29 | Nc1ncn(-c2ncc(F)cc2F)n1 [1-(3,5-Difluoropyridin-2-yl)-1H-1,2,4-triazol-3-amine] | 0.3

same assay, conditions: reversed-phase C18 HPLC column; HPLC-MS, preparation examples; read-out: log P (neutral)

Row | Compound | chromatographic logP
30 | Nc1ncn(-c2c(F)cccc2F)n1 [1-(2,6-Difluorophenyl)-1H-1,2,4-triazol-3-amine] | 0.61
31 | Nc1ncn(-c2c(F)cccc2Br)n1 [1-(2-Bromo-6-fluorophenyl)-1H-1,2,4-triazol-3-amine] | 0.92
32 | Nc1ncn(-c2c(F)cccc2C(F)(F)F)n1 [1-[2-Fluoro-6-(trifluoromethyl)phenyl]-1H-1,2,4-triazol-3-amine] | 1.09
33 | Nc1noc(-c2ccccc2)n1 [5-Phenyl-1,2,4-oxadiazol-3-amine] | 1.28
